Measurements from ChEMBL document CHEMBL5303573, “Mapping human microbiome drug metabolism by gut bacteria and their genes” (Nature, 2019).

assay: The drug is tested on Bacteroides dorei strain: DSM17855 for biotransformation. The drug concentrations were measured before and after a 12-h incubation by liquid-chromatography-coupled mass spectrometry (LC–MS); conditions: phocaeicola dorei, 2 µM

Structure (SMILES)	Bacterial Biotransformation
CC[C@H](C)C(=O)O[C@H]1C[C@@H](C)C=C2C=C[C@H](C)[C@H](CC[C@@H]3C[C@@H](O)CC(=O)O3)[C@H]21 [LOVASTATIN]	Compound metabolized
CN1CCc2cccc3c2[C@H]1Cc1ccc(O)c(O)c1-3 [APOMORPHINE]	Compound NOT metabolized

assay: The drug is tested on Bacteroides coprophilus strain: DSM18228 for biotransformation. The drug concentrations were measured before and after a 12-h incubation by liquid-chromatography-coupled mass spectrometry (LC–MS); conditions: 2 µM

Structure (SMILES)	Bacterial Biotransformation
CC(C)(C#N)c1cc(Cn2cncn2)cc(C(C)(C)C#N)c1 [ANASTROZOLE]	Compound metabolized
CC[C@H](C)C(=O)O[C@H]1C[C@@H](C)C=C2C=C[C@H](C)[C@H](CC[C@@H]3C[C@@H](O)CC(=O)O3)[C@H]21 [LOVASTATIN]	Compound NOT metabolized

assay: The drug is tested on Anaerotruncus colihominis strain: DSM17241 for biotransformation. The drug concentrations were measured before and after a 12-h incubation by liquid-chromatography-coupled mass spectrometry (LC–MS); conditions: 2 µM

Structure (SMILES)	Bacterial Biotransformation
CC(C)(C#N)c1cc(Cn2cncn2)cc(C(C)(C)C#N)c1 [ANASTROZOLE]	Compound NOT metabolized
CC[C@H](C)C(=O)O[C@H]1C[C@@H](C)C=C2C=C[C@H](C)[C@H](CC[C@@H]3C[C@@H](O)CC(=O)O3)[C@H]21 [LOVASTATIN]	Compound metabolized
CN1CCc2cccc3c2[C@H]1Cc1ccc(O)c(O)c1-3 [APOMORPHINE]	Compound NOT metabolized

assay: The drug is tested on Providencia stuartii strain: ATCC25827 for biotransformation. The drug concentrations were measured before and after a 12-h incubation by liquid-chromatography-coupled mass spectrometry (LC–MS); conditions: 2 µM

Structure (SMILES)	Bacterial Biotransformation
CC(C)(C#N)c1cc(Cn2cncn2)cc(C(C)(C)C#N)c1 [ANASTROZOLE]	Compound NOT metabolized
CN1CCc2cccc3c2[C@H]1Cc1ccc(O)c(O)c1-3 [APOMORPHINE]	Compound NOT metabolized

assay: The drug is tested on Bacteroides pectinophilus strain: ATCC43243 for biotransformation. The drug concentrations were measured before and after a 12-h incubation by liquid-chromatography-coupled mass spectrometry (LC–MS); conditions: 2 µM

Structure (SMILES)	Bacterial Biotransformation
CC(C)(C#N)c1cc(Cn2cncn2)cc(C(C)(C)C#N)c1 [ANASTROZOLE]	Compound NOT metabolized
CN1CCc2cccc3c2[C@H]1Cc1ccc(O)c(O)c1-3 [APOMORPHINE]	Compound NOT metabolized

assay: The drug is tested on Eubacterium rectale strain: ATCC33656 for biotransformation. The drug concentrations were measured before and after a 12-h incubation by liquid-chromatography-coupled mass spectrometry (LC–MS); conditions: agathobacter rectalis, 2 µM

Structure (SMILES)	Bacterial Biotransformation
CC(C)(C#N)c1cc(Cn2cncn2)cc(C(C)(C)C#N)c1 [ANASTROZOLE]	Compound NOT metabolized
CC[C@H](C)C(=O)O[C@H]1C[C@@H](C)C=C2C=C[C@H](C)[C@H](CC[C@@H]3C[C@@H](O)CC(=O)O3)[C@H]21 [LOVASTATIN]	Compound NOT metabolized
CN1CCc2cccc3c2[C@H]1Cc1ccc(O)c(O)c1-3 [APOMORPHINE]	Compound NOT metabolized

conditions: parabacteroides johnsonii, 12 h, 2 µM
Description: The drug is tested on Parabacteroides johnsonii strain: DSM18315 for biotransformation. The drug concentrations were measured before and after a 12-h incubation by liquid-chromatography-coupled mass spectrometry (LC–MS)

Structure (SMILES)	Bacterial Biotransformation
CC(C)(C#N)c1cc(Cn2cncn2)cc(C(C)(C)C#N)c1 [ANASTROZOLE]	Compound metabolized
CC[C@H](C)C(=O)O[C@H]1C[C@@H](C)C=C2C=C[C@H](C)[C@H](CC[C@@H]3C[C@@H](O)CC(=O)O3)[C@H]21 [LOVASTATIN]	Compound metabolized
CN1CCc2cccc3c2[C@H]1Cc1ccc(O)c(O)c1-3 [APOMORPHINE]	Compound NOT metabolized

assay: The drug is tested on Parabacteroides merdae strain: ATCC43184 for biotransformation. The drug concentrations were measured before and after a 12-h incubation by liquid-chromatography-coupled mass spectrometry (LC–MS); conditions: 2 µM

Structure (SMILES)	Bacterial Biotransformation
CC(C)(C#N)c1cc(Cn2cncn2)cc(C(C)(C)C#N)c1 [ANASTROZOLE]	Compound metabolized
CC[C@H](C)C(=O)O[C@H]1C[C@@H](C)C=C2C=C[C@H](C)[C@H](CC[C@@H]3C[C@@H](O)CC(=O)O3)[C@H]21 [LOVASTATIN]	Compound metabolized
CN1CCc2cccc3c2[C@H]1Cc1ccc(O)c(O)c1-3 [APOMORPHINE]	Compound NOT metabolized

assay: The drug is tested on Ruminococcus gnavus strain: ATCC29149 for biotransformation. The drug concentrations were measured before and after a 12-h incubation by liquid-chromatography-coupled mass spectrometry (LC–MS); conditions: mediterraneibacter gnavus, 2 µM

Structure (SMILES)	Bacterial Biotransformation
CC(C)(C#N)c1cc(Cn2cncn2)cc(C(C)(C)C#N)c1 [ANASTROZOLE]	Compound NOT metabolized
CC[C@H](C)C(=O)O[C@H]1C[C@@H](C)C=C2C=C[C@H](C)[C@H](CC[C@@H]3C[C@@H](O)CC(=O)O3)[C@H]21 [LOVASTATIN]	Compound NOT metabolized
CN1CCc2cccc3c2[C@H]1Cc1ccc(O)c(O)c1-3 [APOMORPHINE]	Compound NOT metabolized

assay: The drug is tested on Bacteroides ovatus strain: ATCC8483 for biotransformation. The drug concentrations were measured before and after a 12-h incubation by liquid-chromatography-coupled mass spectrometry (LC–MS); conditions: 2 µM

Structure (SMILES)	Bacterial Biotransformation
CC(C)(C#N)c1cc(Cn2cncn2)cc(C(C)(C)C#N)c1 [ANASTROZOLE]	Compound metabolized
CC[C@H](C)C(=O)O[C@H]1C[C@@H](C)C=C2C=C[C@H](C)[C@H](CC[C@@H]3C[C@@H](O)CC(=O)O3)[C@H]21 [LOVASTATIN]	Compound NOT metabolized
CN1CCc2cccc3c2[C@H]1Cc1ccc(O)c(O)c1-3 [APOMORPHINE]	Compound NOT metabolized

conditions: bifidobacterium adolescentis, 12 h, 2 µM
Description: The drug is tested on Bifidobacterium adolescentis strain: ATCC 15703 for biotransformation. The drug concentrations were measured before and after a 12-h incubation by liquid-chromatography-coupled mass spectrometry (LC–MS)

Structure (SMILES)	Bacterial Biotransformation
CC(C)(C#N)c1cc(Cn2cncn2)cc(C(C)(C)C#N)c1 [ANASTROZOLE]	Compound NOT metabolized
CC[C@H](C)C(=O)O[C@H]1C[C@@H](C)C=C2C=C[C@H](C)[C@H](CC[C@@H]3C[C@@H](O)CC(=O)O3)[C@H]21 [LOVASTATIN]	Compound metabolized
CN1CCc2cccc3c2[C@H]1Cc1ccc(O)c(O)c1-3 [APOMORPHINE]	Compound NOT metabolized

assay: The drug is tested on Bacteroides uniformis strain: ATCC8492 for biotransformation. The drug concentrations were measured before and after a 12-h incubation by liquid-chromatography-coupled mass spectrometry (LC–MS); conditions: 2 µM

Structure (SMILES)	Bacterial Biotransformation
CC(C)(C#N)c1cc(Cn2cncn2)cc(C(C)(C)C#N)c1 [ANASTROZOLE]	Compound metabolized
CC[C@H](C)C(=O)O[C@H]1C[C@@H](C)C=C2C=C[C@H](C)[C@H](CC[C@@H]3C[C@@H](O)CC(=O)O3)[C@H]21 [LOVASTATIN]	Compound metabolized
CN1CCc2cccc3c2[C@H]1Cc1ccc(O)c(O)c1-3 [APOMORPHINE]	Compound NOT metabolized

assay: The drug is tested on Anaerococcus hydrogenalis strain: DSM7454 for biotransformation. The drug concentrations were measured before and after a 12-h incubation by liquid-chromatography-coupled mass spectrometry (LC–MS); conditions: 2 µM

Structure (SMILES)	Bacterial Biotransformation
CC(C)(C#N)c1cc(Cn2cncn2)cc(C(C)(C)C#N)c1 [ANASTROZOLE]	Compound NOT metabolized
CC[C@H](C)C(=O)O[C@H]1C[C@@H](C)C=C2C=C[C@H](C)[C@H](CC[C@@H]3C[C@@H](O)CC(=O)O3)[C@H]21 [LOVASTATIN]	Compound metabolized
CN1CCc2cccc3c2[C@H]1Cc1ccc(O)c(O)c1-3 [APOMORPHINE]	Compound NOT metabolized

conditions: bacteroides fragilis, 12 h, 2 µM
Description: The drug is tested on Bacteroides fragilis strain: NCTC 9343 for biotransformation. The drug concentrations were measured before and after a 12-h incubation by liquid-chromatography-coupled mass spectrometry (LC–MS)

Structure (SMILES)	Bacterial Biotransformation
CC(C)(C#N)c1cc(Cn2cncn2)cc(C(C)(C)C#N)c1 [ANASTROZOLE]	Compound metabolized
CC[C@H](C)C(=O)O[C@H]1C[C@@H](C)C=C2C=C[C@H](C)[C@H](CC[C@@H]3C[C@@H](O)CC(=O)O3)[C@H]21 [LOVASTATIN]	Compound metabolized
CN1CCc2cccc3c2[C@H]1Cc1ccc(O)c(O)c1-3 [APOMORPHINE]	Compound NOT metabolized

assay: The drug is tested on Alistipes indistinctus strain: DSM22520 for biotransformation. The drug concentrations were measured before and after a 12-h incubation by liquid-chromatography-coupled mass spectrometry (LC–MS); conditions: 2 µM

Structure (SMILES)	Bacterial Biotransformation
CC(C)(C#N)c1cc(Cn2cncn2)cc(C(C)(C)C#N)c1 [ANASTROZOLE]	Compound NOT metabolized
CC[C@H](C)C(=O)O[C@H]1C[C@@H](C)C=C2C=C[C@H](C)[C@H](CC[C@@H]3C[C@@H](O)CC(=O)O3)[C@H]21 [LOVASTATIN]	Compound NOT metabolized
CN1CCc2cccc3c2[C@H]1Cc1ccc(O)c(O)c1-3 [APOMORPHINE]	Compound NOT metabolized

assay: The drug is tested on Ruminococcus torques strain: ATCC27756 for biotransformation. The drug concentrations were measured before and after a 12-h incubation by liquid-chromatography-coupled mass spectrometry (LC–MS); assay type: ADME; parameters: dose 2 uM, timepoint 0 vs 12 hours; conditions: 2 µM

Structure (SMILES)	Bacterial Biotransformation
CC(C)(C#N)c1cc(Cn2cncn2)cc(C(C)(C)C#N)c1 [ANASTROZOLE]	Compound NOT metabolized
CC[C@H](C)C(=O)O[C@H]1C[C@@H](C)C=C2C=C[C@H](C)[C@H](CC[C@@H]3C[C@@H](O)CC(=O)O3)[C@H]21 [LOVASTATIN]	Compound NOT metabolized
CN1CCc2cccc3c2[C@H]1Cc1ccc(O)c(O)c1-3 [APOMORPHINE]	Compound NOT metabolized

assay: The drug is tested on Edwardsiella tarda strain: ATCC23685 for biotransformation. The drug concentrations were measured before and after a 12-h incubation by liquid-chromatography-coupled mass spectrometry (LC–MS); conditions: 2 µM

Structure (SMILES)	Bacterial Biotransformation
CC(C)(C#N)c1cc(Cn2cncn2)cc(C(C)(C)C#N)c1 [ANASTROZOLE]	Compound NOT metabolized
CC[C@H](C)C(=O)O[C@H]1C[C@@H](C)C=C2C=C[C@H](C)[C@H](CC[C@@H]3C[C@@H](O)CC(=O)O3)[C@H]21 [LOVASTATIN]	Compound NOT metabolized
CN1CCc2cccc3c2[C@H]1Cc1ccc(O)c(O)c1-3 [APOMORPHINE]	Compound NOT metabolized

conditions: limosilactobacillus reuteri cf48-3a, 12 h, 2 µM
Description: The drug is tested on Lactobacillus reuteri CF48-3A strain: BEI HM-102 for biotransformation. The drug concentrations were measured before and after a 12-h incubation by liquid-chromatography-coupled mass spectrometry (LC–MS)

Structure (SMILES)	Bacterial Biotransformation
CC(C)(C#N)c1cc(Cn2cncn2)cc(C(C)(C)C#N)c1 [ANASTROZOLE]	Compound NOT metabolized
CC[C@H](C)C(=O)O[C@H]1C[C@@H](C)C=C2C=C[C@H](C)[C@H](CC[C@@H]3C[C@@H](O)CC(=O)O3)[C@H]21 [LOVASTATIN]	Compound NOT metabolized
CN1CCc2cccc3c2[C@H]1Cc1ccc(O)c(O)c1-3 [APOMORPHINE]	Compound NOT metabolized

assay: The drug is tested on Enterococcus faecalis strain: V583 for biotransformation. The drug concentrations were measured before and after a 12-h incubation by liquid-chromatography-coupled mass spectrometry (LC–MS); conditions: 2 µM

Structure (SMILES)	Bacterial Biotransformation
CC(C)(C#N)c1cc(Cn2cncn2)cc(C(C)(C)C#N)c1 [ANASTROZOLE]	Compound NOT metabolized
CC[C@H](C)C(=O)O[C@H]1C[C@@H](C)C=C2C=C[C@H](C)[C@H](CC[C@@H]3C[C@@H](O)CC(=O)O3)[C@H]21 [LOVASTATIN]	Compound metabolized
CN1CCc2cccc3c2[C@H]1Cc1ccc(O)c(O)c1-3 [APOMORPHINE]	Compound NOT metabolized

assay: The drug is tested on Clostridium ramosum strain: DSM1402 for biotransformation. The drug concentrations were measured before and after a 12-h incubation by liquid-chromatography-coupled mass spectrometry (LC–MS); conditions: thomasclavelia ramosa, 2 µM

Structure (SMILES)	Bacterial Biotransformation
CC(C)(C#N)c1cc(Cn2cncn2)cc(C(C)(C)C#N)c1 [ANASTROZOLE]	Compound NOT metabolized
CC[C@H](C)C(=O)O[C@H]1C[C@@H](C)C=C2C=C[C@H](C)[C@H](CC[C@@H]3C[C@@H](O)CC(=O)O3)[C@H]21 [LOVASTATIN]	Compound NOT metabolized
CN1CCc2cccc3c2[C@H]1Cc1ccc(O)c(O)c1-3 [APOMORPHINE]	Compound NOT metabolized
